System: 299254-011-R-J1-PDC complex spheroids viability
Experiment: Anticancer human tumor 299254-011-R-J1-PDC patient-derived melanoma cell line growth inhibition [GQUAD]
Conditions: for IC50: curve of first compound; for viability, T/C: stronger effect = lower value
Description: DNA G-quadruplex Stabilizer Agents in Combinations in Complex Spheroids
A high-throughput screen of multi-cell type tumor spheroids was designed to identify active combinations of DNA G-quadruplex stabilizer agents and targeted small molecules. Complex spheroids include a stromal component modeled by human endothelial cells (HUVEC) and fibroblasts modeled by human mesenchymal stem cells (MSCs). The concentration ranges selected for each drug and investigational agent were based upon clinically achievable concentrations if the clinical Cmax of the agent was known.
Compounds. The drugs and investigational agents: pidnarulex (CX-5461; NSC782164), APTO-253 (NSC789042), BRACO-19 (NSC847499), peposertib (NSC802822), ceralasertib (NSC780249), elimusertib (NSC800525), camonsertib (NSC841442), AZD-1390 (NSC803789), olaparib (NSC753686), talazoparib (NSC767125), ART-558 (NSC835418), sotorasib (NSC818433), MRTX-1133 (NSC836407), SN-38 (NSC673596), topotecan (NSC609699), etoposide (NSC141540), doxorubicin (NSC123127), gemcitabine (NSC613327), 5-fluorouracil (NSC19893), paclitaxel (NSC125973), vemurafenib (NSC761431), panobinostat (NSC761190), R-306465 (JNJ-16241199; NSC773264), adavosertib (NSC754352), TP-3654 (NSC805149), carboplatin (NSC241240), KSQ-4279 (NSC840948), and staurosporine (NSC755774) were obtained from the National Cancer Institute (NCI) Developmental Therapeutics Program Chemical Repository (34). The FDA-approved anticancer drug set is available from the NCI Developmental Therapeutics Program. […] The stock solutions were prepared in dimethyl sulfoxide (DMSO, Sigma-Aldrich, St. Louis, MO, cat. D2650) at 800-fold the tested concentration and stored at -70 degrees C prior to their use. All drugs and investigational agents were tested over a range starting from a high concentration at or near the clinical Cmax and decreasing in half-log increments. If the clinical Cmax for an agent had not been determined, the highest concentration tested was 10 microM.
2.3 Cell Culture. All cells were maintained in an incubator at 37 degrees C and 5% CO2 with 95% humidity. The PDC lines were cultured according to standard operating procedures established by the NCI PDMR. All PDCs were thawed and cultured in Matrigel-coated flasks prepared with a working solution of 1X Ham's F-12 nutrient mix, without supplementation (Invitrogen, cat. 11765054), 100 U/mL penicillin-streptomycin (Invitrogen, cat. 15140122), and 2.5% Matrigel (Corning Inc., cat. 354248) for the first three passages. The 857933-349-R-J2-PDC line was cultured in 6C/Colon 1B media, which includes advanced DMEM/F-12 (Thermo Fisher Scientific, cat. 12634028), 10 mM HEPES (Thermo Fisher Scientific, cat. 15630080), 1X GlutaMAX supplement (Thermo Fisher Scientific, cat. 35050061), 0.1 mg/mL primocin (InvivoGen, cat. ant-pm-2), 10% defined fetal bovine serum, heat inactivated (HyClone Laboratories Inc., cat. SH30070.03HI), 50% L-WRN conditioned media (ATCC, cat. CRL-3276), 1.25 mM N-Acetyl-L-cysteine (Sigma-Aldrich, cat. A9165), 10 mM nicotinamide (Sigma-Aldrich, cat. N0636), 1X B-27 supplement (Thermo Fisher Scientific, cat. 17504044), 1X N-2 supplement (Thermo Fisher Scientific, cat. 17502048), 10 microM Y-27632 dihydrochloride (Tocris Bioscience, cat. 1254), and 50 ng/mL human EGF recombinant protein (Thermo Fisher Scientific, cat. PHG0311). The 485176-168-R4-J1-PDC line was cultured in Panc media, which includes all 6C/Colon 1B media components plus 100 ng/mL human FGF-10 (Thermo Fisher Scientific, cat. 100-26), 500 nM SB-431542 (Selleckchem, cat. S1067), and gastrin (Tocris, cat. 3006).
[…]

[1] = second compound 0.0316 µM, first compound 0.0316 µM
[2] = second compound 0.0316 µM, first compound 0.1 µM
[3] = second compound 0.0316 µM, first compound 0.316 µM
[4] = second compound 0.0316 µM, first compound 1 µM
[5] = second compound 0.0316 µM, first compound 3.16 µM
[6] = second compound 0.0316 µM, first compound 10 µM
[7] = second compound 0.1 µM, first compound 0.0316 µM
[8] = second compound 0.1 µM, first compound 0.1 µM
[9] = second compound 0.1 µM, first compound 0.316 µM
[10] = second compound 0.1 µM, first compound 1 µM
[11] = second compound 0.1 µM, first compound 3.16 µM
[12] = second compound 0.1 µM, first compound 10 µM
[13] = second compound 0.316 µM, first compound 0.0316 µM
[14] = second compound 0.316 µM, first compound 0.1 µM
[15] = second compound 0.316 µM, first compound 0.316 µM
[16] = second compound 0.316 µM, first compound 1 µM
[17] = second compound 0.316 µM, first compound 3.16 µM
[18] = second compound 0.316 µM, first compound 10 µM
[19] = second compound 1 µM, first compound 0.0316 µM
[20] = second compound 1 µM, first compound 0.1 µM
[21] = second compound 1 µM, first compound 0.316 µM
[22] = second compound 1 µM, first compound 1 µM
[23] = second compound 1 µM, first compound 3.16 µM
[24] = second compound 1 µM, first compound 10 µM
[25] = second compound 3.16 µM, first compound 0.0316 µM
[26] = second compound 3.16 µM, first compound 0.1 µM
[27] = second compound 3.16 µM, first compound 0.316 µM
[28] = second compound 3.16 µM, first compound 1 µM
[29] = second compound 3.16 µM, first compound 3.16 µM
[30] = second compound 3.16 µM, first compound 10 µM
[31] = second compound 10 µM, first compound 0.0316 µM
[32] = second compound 10 µM, first compound 0.1 µM
[33] = second compound 10 µM, first compound 0.316 µM
[34] = second compound 10 µM, first compound 1 µM
[35] = second compound 10 µM, first compound 3.16 µM
[36] = second compound 10 µM, first compound 10 µM
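Note: spheroids exposed to the agents for seven days before readout.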
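Throughout, for viability, T/C: percent viability relative to DMSO vehicle control wells = 100%.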

`CC(C)(O)C1CCC(Nc2ccc3ncc(-c4cccc(C(F)(F)F)c4)n3n2)CC1` (centres undefined) + Cc1cnc(CNC(=O)c2c(=O)c3ccc(N4CCCN(C)CC4)nc3n3c2sc2ccccc23)cn1 gave an IC50 (second compound 0.0316 µM) of over 10 µM, an IC50 (second compound 0.1 µM) of over 10 µM and an IC50 (second compound 0.316 µM) of over 10 µM. It also gave an IC50 (second compound 1 µM) of 4.52 µM, an IC50 (second compound 3.16 µM) of 1.96 µM and an IC50 (second compound 10 µM) of under 0.0316 µM. The viability, T/C [1] was 98.5%, the viability, T/C [2] was 114% and the viability, T/C [3] was 97.5%. For the same compound, the viability, T/C [4] was 90.7%, the viability, T/C [5] was 54.5% and the viability, T/C [6] was 100%. For the same compound, the viability, T/C [7] was 89.3%, the viability, T/C [8] was 101% and the viability, T/C [9] was 113%. For the same compound, the viability, T/C [10] was 98.6%, the viability, T/C [11] was 63.7% and the viability, T/C [12] was 110%. The viability, T/C [13] was 90.1%, the viability, T/C [14] was 100% and the viability, T/C [15] was 88.4%. It also gave a viability, T/C [16] of 98.2%, a viability, T/C [17] of 60% and a viability, T/C [18] of 84%. For the same compound, the viability, T/C [19] was 81.7%, the viability, T/C [20] was 112% and the viability, T/C [21] was 96.7%. The viability, T/C [22] was 74.7%, the viability, T/C [23] was 55.8% and the viability, T/C [24] was 42.3%. It also gave a viability, T/C [25] of 76.7%, a viability, T/C [26] of 85.9% and a viability, T/C [27] of 86.4%. It also gave a viability, T/C [28] of 76.8%, a viability, T/C [29] of 24.1% and a viability, T/C [30] of 37.6%. It also gave a viability, T/C [31] of 45.7%, a viability, T/C [32] of 18% and a viability, T/C [33] of 17.3%. The viability, T/C [34] was 0.33%, the viability, T/C [35] was 0.29% and the viability, T/C [36] was 0.26%.

With `C#Cc1c(F)ccc2cc(O)cc(-c3ncc4c(N5CC6CCC(C5)N6)nc(OCC56CCCN5CC(F)C6)nc4c3F)c12` (centres undefined) + Cc1[nH]c2ccc(F)cc2c1-c1nc2c3cccnc3c3ncccc3c2[nH]1 the IC50 (second compound 0.0316 µM) was over 10 µM, the IC50 (second compound 0.1 µM) was over 10 µM and the IC50 (second compound 0.316 µM) was over 10 µM. The IC50 (second compound 1 µM) was over 10 µM, the IC50 (second compound 3.16 µM) was over 10 µM and the IC50 (second compound 10 µM) was over 10 µM. For the same compound, the viability, T/C [1] was 109%, the viability, T/C [2] was 102% and the viability, T/C [3] was 87.9%. For the same compound, the viability, T/C [4] was 102%, the viability, T/C [5] was 90.8% and the viability, T/C [6] was 72.5%. It also gave a viability, T/C [7] of 83.1%, a viability, T/C [8] of 103% and a viability, T/C [9] of 103%. The viability, T/C [10] was 100%, the viability, T/C [11] was 103% and the viability, T/C [12] was 72.9%. For the same compound, the viability, T/C [13] was 89.4%, the viability, T/C [14] was 102% and the viability, T/C [15] was 88.8%. The viability, T/C [16] was 86.6%, the viability, T/C [17] was 111% and the viability, T/C [18] was 75.7%. For the same compound, the viability, T/C [19] was 129%, the viability, T/C [20] was 95.2% and the viability, T/C [21] was 116%. It also gave a viability, T/C [22] of 104%, a viability, T/C [23] of 86.6% and a viability, T/C [24] of 80.8%. It also gave a viability, T/C [25] of 102%, a viability, T/C [26] of 112% and a viability, T/C [27] of 97.2%. It also gave a viability, T/C [28] of 88.9%, a viability, T/C [29] of 114% and a viability, T/C [30] of 91.7%. It also gave a viability, T/C [31] of 87.2%, a viability, T/C [32] of 100% and a viability, T/C [33] of 98.4%. It also gave a viability, T/C [34] of 99.1%, a viability, T/C [35] of 105% and a viability, T/C [36] of 95.6%.

— PubChem BioAssay AID2060513 (Molecular Pharmacology Branch, DTP, NCI, 2025)
